Source: the supplement of paper PMC10307832

Tests used:
Test in all cases: relative viability (nuclei count vs DMSO), 5 days (fraction); higher = more cells survive
Dactolisib + Tozasertib = compound: Cn1c(=O)n(-c2ccc(C(C)(C)C#N)cc2)c2c3cc(-c4cnc5ccccc5c4)ccc3ncc21 [Dactolisib] + Cc1cc(Nc2cc(N3CCN(C)CC3)nc(Sc3ccc(NC(=O)C4CC4)cc3)n2)n[nH]1 [Tozasertib] (partner 0.1 µM)
In short: (§1)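 Medians of duplicate plates are given as relative viability. That measure is the nuclei count in treated wells divided by the count in vehicle wells. Counts were taken on 4× images of lung cancer cell lines in 1536-well plates, 5 days after pin-tool dosing the day after seeding with one drug alone or a fixed anchor-drug dose plus five library-drug doses (not always all listed) in √10 steps.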

Dactolisib + Alpelisib = compound: Cn1c(=O)n(-c2ccc(C(C)(C)C#N)cc2)c2c3cc(-c4cnc5ccccc5c4)ccc3ncc21 [Dactolisib] + Cc1nc(NC(=O)N2CCC[C@H]2C(N)=O)sc1-c1ccnc(C(C)(C)C(F)(F)F)c1 [Alpelisib] (partner 2 µM)
In short: as §1

AZ505 + Lapatinib = compound: C1CCC(CC1)N(CCNCCC2=C3C(=C(C=C2)O)NC(=O)CO3)C(=O)CCNCCC4=CC(=C(C=C4)Cl)Cl [AZ505] + CS(=O)(=O)CCNCc1ccc(-c2ccc3ncnc(Nc4ccc(OCc5cccc(F)c5)c(Cl)c4)c3c2)o1 [Lapatinib] (partner 2 µM)
In short: as §1

Dactolisib + Olaparib = compound: Cn1c(=O)n(-c2ccc(C(C)(C)C#N)cc2)c2c3cc(-c4cnc5ccccc5c4)ccc3ncc21 [Dactolisib] + O=C(c1cc(Cc2n[nH]c(=O)c3ccccc23)ccc1F)N1CCN(C(=O)C2CC2)CC1 [Olaparib] (partner 8 µM)
In short: as §1

Cell Line	relative viability (Dactolisib + Tozasertib; first compound 0.002 µM)	relative viability (Dactolisib + Tozasertib; first compound 0.006325 µM)	relative viability (Dactolisib + Tozasertib; first compound 0.02 µM)	relative viability (Dactolisib + Tozasertib; first compound 0.06325 µM)	relative viability (Dactolisib + Tozasertib; first compound 0.2 µM)	relative viability (Dactolisib + Alpelisib; first compound 0.002 µM)	relative viability (Dactolisib + Alpelisib; first compound 0.006325 µM)	relative viability (Dactolisib + Alpelisib; first compound 0.02 µM)	relative viability (Dactolisib + Alpelisib; first compound 0.06325 µM)	relative viability (Dactolisib + Alpelisib; first compound 0.2 µM)	relative viability (AZ505 + Lapatinib; first compound 0.08 µM)	relative viability (AZ505 + Lapatinib; first compound 0.253 µM)	relative viability (AZ505 + Lapatinib; first compound 0.8 µM)	relative viability (AZ505 + Lapatinib; first compound 2.53 µM)	relative viability (AZ505 + Lapatinib; first compound 8 µM)	relative viability (Dactolisib + Olaparib; first compound 0.002 µM)	relative viability (Dactolisib + Olaparib; first compound 0.006325 µM)	relative viability (Dactolisib + Olaparib; first compound 0.02 µM)	relative viability (Dactolisib + Olaparib; first compound 0.06325 µM)	relative viability (Dactolisib + Olaparib; first compound 0.2 µM)
201T	0.936	0.965	0.98	0.879	0.474	1.01	0.994	0.986	0.98	0.688	1	1.04	0.957	1.04	1.01	0.833	0.824	0.849	0.782	0.54
A549						0.966	0.715	0.614	0.146	0.083	0.916	0.931	0.966	0.929	0.955	0.286	0.302	0.244	0.122	0.0942
A-427	0.201	0.192	0.253	0.208	0.187	1.16	1.01	1.03	0.733	0.578	1.1	1.07	0.961	1.03	0.998	0.877	0.675	0.707	0.619	0.495
ABC-1	0.188	0.176	0.165	0.166	0.19	1.2	1.01	0.816	0.571	0.431		1.1	1.11	1.12	1.23	0.911	0.862	0.952	1.1	0.613
BEN	0.525	0.553	0.53	0.49	0.42	1.01	0.89	0.808	0.47	0.277	0.645	0.69	0.728	0.718	1.02	0.988	0.939	1.08	0.635	0.478
CAL-12T	0.288	0.296	0.241	0.163	0.121	1.53	1.13	1.2	0.205	0.206	0.637	0.534	0.537	0.625	0.728	0.822	0.662	0.496	0.286	0.271
COR-L23	0.273	0.243	0.257	0.149	0.147	0.8	0.646	0.419	0.199	0.149	0.873	0.987	0.878	0.82	0.74	0.345	0.351	0.312	0.182	0.141
COR-L 105	0.413	0.401	0.35	0.361	0.289	1.02	0.915	1.12	0.436	0.297	0.344	0.302	0.349	0.339	0.372	0.629	0.744	0.76	0.592	0.367
Calu-6						0.99	0.897	0.694	0.401	0.338	0.925	1.17	1.07	1.02	1.11	0.553	0.642	0.688	0.469	0.458
ChaGo-K-1	0.248	0.235	0.221	0.223	0.211											0.404	0.419	0.421	0.457	0.443
EBC-1						0.832	0.742	0.58	0.243	0.207	0.267	0.243	0.194	0.19	0.219	0.809	0.645	0.648	0.19	0.176
EKVX	0.426	0.366	0.423	0.242	0.179	0.937	0.878	0.759	0.463	0.369	0.225	0.184	0.175	0.185	0.214	0.661	0.867	0.861	0.469	0.331
EMC-BAC-2	0.266	0.271	0.334	0.287	0.273	0.802	0.708	0.69	0.542	0.374	0.819	0.905	0.814	0.837	0.904	0.613	0.433	0.464	0.372	0.356
EPLC-272H	0.348	0.221	0.243	0.207	0.193	0.961	0.752	0.779	0.527	0.465	0.785	0.817	0.867	0.871	0.956	0.807	0.486	0.512	0.284	0.232
H3255	0.525	0.521	0.682	0.51	0.432	0.767	0.709	0.653	0.481	0.314	0.249	0.235	0.268	0.283	0.247	0.559	0.56	0.499	0.475	0.399
HARA	0.103	0.116	0.103	0.112	0.0818	1.15	0.78	0.809	0.594	0.206	0.636	0.501	0.651	0.802	0.681	1.23	0.858	0.898	0.684	0.24
HCC-15	0.388	0.386	0.449	0.326	0.215	0.941	0.832	0.874	0.417	0.38	0.741	0.809	0.861	0.805	0.871	0.957	0.699	0.699	0.535	0.39
HCC-44	0.826	0.899	0.855	0.341	0.297	0.907	0.722	0.601	0.337	0.3	0.926	1.09	0.974	1.11	1.06	0.969	1.03	0.956	1.01	1.01
HCC-78	0.457	0.418	0.414	0.361	0.284	0.358	0.33	0.282	0.247	0.198		0.643	0.645	1.2	0.86	0.856	0.94	0.669	0.452	0.336

Cell Line	relative viability (Dactolisib + Tozasertib; first compound 0.002 µM)	relative viability (Dactolisib + Tozasertib; first compound 0.006325 µM)	relative viability (Dactolisib + Tozasertib; first compound 0.02 µM)	relative viability (Dactolisib + Tozasertib; first compound 0.06325 µM)	relative viability (Dactolisib + Tozasertib; first compound 0.2 µM)	relative viability (Dactolisib + Alpelisib; first compound 0.002 µM)	relative viability (Dactolisib + Alpelisib; first compound 0.006325 µM)	relative viability (Dactolisib + Alpelisib; first compound 0.02 µM)	relative viability (Dactolisib + Alpelisib; first compound 0.06325 µM)	relative viability (Dactolisib + Alpelisib; first compound 0.2 µM)	relative viability (AZ505 + Lapatinib; first compound 0.08 µM)	relative viability (AZ505 + Lapatinib; first compound 0.253 µM)	relative viability (AZ505 + Lapatinib; first compound 0.8 µM)	relative viability (AZ505 + Lapatinib; first compound 2.53 µM)	relative viability (AZ505 + Lapatinib; first compound 8 µM)	relative viability (Dactolisib + Olaparib; first compound 0.002 µM)	relative viability (Dactolisib + Olaparib; first compound 0.006325 µM)	relative viability (Dactolisib + Olaparib; first compound 0.02 µM)	relative viability (Dactolisib + Olaparib; first compound 0.06325 µM)	relative viability (Dactolisib + Olaparib; first compound 0.2 µM)
HCC-366	0.11	0.101	0.0652	0.0776	0.0308	0.329	0.369	0.401	0.175	0.134	1.01	1.01	0.903	0.986	1.06	0.243	0.356	0.38	0.166	0.142
HCC-827	0.419	0.452	0.401	0.416	0.329	0.964	1.01	0.943	0.468	0.359	0.218	0.191	0.171	0.199	0.191	0.601	0.611	0.608	0.479	0.411
HOP-62	0.423	0.383	0.473	0.306	0.309	1.19	1.09	0.876	0.468	0.323	0.878	1.22	1.08	1.03	0.942	0.378	0.464	0.542	0.298	0.36
IA-LM						0.636	0.663	0.793	0.179	0.186	0.629	0.935	0.912	0.656	0.884	0.85	0.729	0.783	0.348	0.738
LC-2-ad	0.454	0.412	0.43	0.363	0.333	0.916		0.817	0.64	0.533	0.949	0.957	0.92	1	0.921	0.825	0.749	0.747	0.864	0.852
LCLC-97TM1	0.189	0.15	0.151	0.171	0.111	0.304	0.218	0.186	0.134	0.151	1.03	0.948	1.28	1.06	1.3	0.383	0.416	0.319	0.256	0.093
LCLC-103H	0.492	0.481	0.451	0.379	0.286	1.01	0.943	0.95	0.673	0.539						0.823	0.743	0.647	0.571	0.395
LK-2	0.209	0.197	0.181	0.153	0.171	0.934	1.03	0.793	0.526	0.416	0.777	0.837	1	1.05	1.03	0.61	0.836	0.491	0.328	0.17
NCI-H441	0.831	0.632	0.522	0.384	0.284	1.05	0.74	0.685	0.429	0.271						0.784	0.571	0.597	0.248	0.25
NCI-H522	0.625	0.575	0.542	0.521	0.385											0.691	0.664	0.68	0.464	0.446
NCI-H1299						1.07	1.08	1.1	0.829	0.905	0.918	1.05	0.923	0.897	0.978	1.01	0.997	1.04	0.568	0.742
NCI-H1563						0.851	0.86	0.706	0.605	0.588	0.836	0.882	0.998	0.865	0.905					
NCI-H1623	0.396	0.414	0.428	0.37	0.298															
NCI-H1648	0.407	0.433	0.446	0.24	0.218											0.998	0.78	0.799	0.473	0.246
NCI-H1650	0.397	0.476	0.425	0.367	0.302						0.699	0.707	0.794	0.742	0.909	1.03	0.704	0.722	0.498	0.568
NCI-H1703						0.205	0.329	0.34	0.267	0.216	1	1.26	1.03	1.2	1.28		0.292	0.389	0.198	0.285
NCI-H1792						0.783	0.671	0.549	0.165	0.125	0.822	0.846	0.861	0.852	0.99	0.427	0.319	0.394	0.135	0.101
NCI-H2342	0.475	0.496	0.435	0.502	0.362											0.411	0.369	0.501	0.376	0.382
SW 900	0.633	0.669	0.511	0.426	0.36											1.22	0.853	0.689	0.502	0.424
